From patent US12245593B2, “Agricultural products and related methods” (priority 2017, dated 2025)

Tested on: glyphosate-tolerant Palmer Amaranth (Amaranthus palmeri)
Assay type: in vivo
Details: glyphosate 1.27 kg/ha; Composition C 1 liter/ha; two weeks after spraying
Procedure: Various plant treatment products comprising (i) select plant treatment components (e.g., pesticides, fungicides, herbicides) and (ii) one or more microbial fermentation product formulations (Composition A, B, C, and combinations) were tested on (1) rice (Oryza sativa) infected by Sheath Blight Rhizoctonia solani, (2) soybean (Glycine max) infected by Soybean Rust (Phakopsora pachyrhizi), (3) wheat (Triticum aestivum) infected by Stripe Rust (Puccinia striiformis), (4) corn (Zea mays) infected by Gray Leaf Spot (Cercospora zeae-maydis), (5) creeping bentgrass (Agrostis stolonifera) infected by dollar spot (Sclerotina homoeocarpa), and (6) glyphosate-tolerant Palmer Amaranth (Amaranthus palmeri) weed, and compared to controls, including plant treatment component(s) alone.
To test the effects of the inventive plant treatment product on weed survival in herbicide-tolerant Palmer Amaranth (Amaranthus palmeri) plants, the plant treatment product (Composition C+herbicide) or herbicide component (alone) were applied to weeds, in greenhouse conditions. […] The measurements of dry shoot mass and dry root mass were taken two weeks after spraying. […] Thus, the inventive plant treatment product can enhance herbicide susceptibility in herbicide-tolerant plants.

## O=C(O)CNCP(=O)(O)O [Herbicide, glyphosate]
  Palmer Amaranth root dry weight per plant in greenhouse conditions: 0.768
  Palmer Amaranth root dry weight, change versus Untreated Control: −40.9%
  Palmer Amaranth root fresh weight per plant in greenhouse conditions: 4.70
  Palmer Amaranth root fresh weight, change versus Untreated Control: −51.3%
  Palmer Amaranth shoot dry weight per plant in greenhouse conditions: 5.31
  Palmer Amaranth shoot dry weight, change versus Untreated Control: −7.01%
  Palmer Amaranth shoot fresh weight per plant in greenhouse conditions: 15.0
  Palmer Amaranth shoot fresh weight, change versus Untreated Control: −20.6%
